Each structure is given as a SMILES string. Where only a bound is given, the exact number is not on record here.

One experiment deals with heme oxygenase 1 (HMOX1). Kind of experiment: Expression array experiments. Format: cell-based. The settings on record: multiple cell lines; data not shown. As for the experimental part: As HMOX1 is known to be regulated by H3 methylation in the promoter (Krieg, A. J., et al. Mol Cell Biol 2010, 30 (1), 344-53), the effect of the test compounds on HMOX1 expression in T-47D cells was determined (see Tables 6 and 7).
For the molecule `C/C(=N\NC(=O)c1cccc(S(=O)(=O)N2CCOCC2)c1)c1cc(Cl)ccc1O` [Compound 12, (E)-N'-(1-(5-chloro-2-hydroxyphenyl)ethylidene)-3-(morpholinosulfonyl)benzohydrazide], the “transcriptional changes, HMOX1” value is reported as “one of the most consistently up-regulated genes”.

For another experiment, the target named is T1, LSD1 (Homo sapiens, UniProt O60341).
T1 construct: purchased Cayman Chemical Company 700120
Experiment: not given
The experiment is classed as biochemical.
Conditions: not given
In the case of `COc1ccc(Cl)cc1C(=O)NNC(=O)c1cc(S(=O)(=O)N2CCOCC2)ccc1F` [Compound 6], the IC50 – broadly, the point on the concentration scale where inhibition reaches its midpoint – was greater than 3000 nM.

`O=C(NNC(=O)c1cc(S(=O)(=O)N2CCOCC2)ccc1F)c1cccc(Cl)c1` [Compound 7]: the IC50 was greater than 3000 nM. Still for that read-out and setting: as for `CCN(CC)S(=O)(=O)c1ccc(F)c(C(=O)NNC(=O)c2ccc(C)cc2)c1` [Compound 8], the figure is greater than 3000 nM; as for `C/C(=N\NC(=O)c1cccc(S(=O)(=O)N2CCOCC2)c1)c1cc(Cl)ccc1O` [Compound 12, (E)-N'-(1-(5-chloro-2-hydroxyphenyl)ethylidene)-3-(morpholinosulfonyl)benzohydrazide], 13 nM. On the same count and under the same terms, the same measure for `C/C(=N\NC(=O)c1cccc(S(=O)(=O)N2CCOCC2)c1)c1cccc(Cl)c1F` [Compound 13]: greater than 3000 nM. The same measure, in the same setting: the same measure for `C/C(=N\NC(=O)c1ccccc1)c1c(O)cccc1O` [Compound 14]: greater than 3000 nM; for `C/C(=N\NC(=O)c1cccc(S(=O)(=O)N2CCOCC2)c1)c1ccnc(Cl)c1` [Compound 15]: greater than 3000 nM. In turn, `C/C(=N\NC(=O)c1cccc(S(=O)(=O)N2CCOCC2)c1)c1cc(Cl)ccc1Cl` [Compound 16] came in with an IC50 greater than 3000 nM. The same measure, in the same setting: the same measure for `C/C(=N\NC(=O)c1ccc(Cl)c(Br)c1)c1cc(Cl)ccc1O` [Compound 17]: greater than 3000 nM. In turn, `C/C(=N\NC(=O)c1cnc(Cl)c(Br)c1)c1cc(Cl)ccc1O` [Compound 19] returned an IC50 greater than 3000 nM. In turn, `C/C(=N\NC(=O)c1cncc(Cl)c1)c1cc(Cl)ccc1O` [Compound 20] yielded an IC50 greater than 3000 nM. With `CC/C(=N\NC(=O)c1cccc(S(=O)(=O)N2CCOCC2)c1)c1cc(Cl)ccc1O` [Compound 21, (E)-N'-(1-(5-CHLORO-2-HYDROXYPHENYL)PROPYLIDENE)-3-(MORPHOLINOSULFONYL)BENZOHYDRAZIDE], the concentration for half-maximal inhibition (IC50) is greater than 3000 nM. The molecule `C/C(=N\NC(=O)c1cccc(S(=O)(=O)N2CCOCC2)c1)c1cccnc1` [Compound 22] returned an IC50 greater than 3000 nM. Still for that read-out and setting: as for `C/C(=N\NC(=O)c1cccc(S(=O)(=O)N2CCOCC2)c1)c1cc(Cl)ccc1F` [Compound 27, (E)-N'-(1-(5-chloro-2-fluorophenyl)ethylidene)-3-(morpholinosulfonyl)benzohydrazide], the figure is greater than 3000 nM; as for `C/C(=N\NC(=O)c1ccccc1S(=O)(=O)N1CCOCC1)c1cc(Cl)ccc1O` [Compound 28, (E)-N'-(1-(5-chloro-2-hydroxyphenyl)ethylidene)-2-(morpholinosulfonyl)benzohydrazide], greater than 3000 nM. Still for that read-out and setting: as for `C/C(=N\NC(=O)c1cccc(S(=O)(=O)N2CCOCC2)c1)c1cc(Cl)ccc1[N+](=O)[O-]` [Compound 32, (E)-N'-(1-(5-chloro-2-nitrophenyl)ethylidene)-3-(morpholinosulfonyl)benzohydrazide], the figure is greater than 3000 nM; as for `Cc1cn(C(=O)c2cccc(S(=O)(=O)N3CCOCC3)c2)nc1-c1cc(Cl)ccc1O` [Compound 37, (3-(5-chloro-2-hydroxyphenyl)-4-methyl-1H-pyrazol-1-yl)(3-(morpholinosulfonyl)phenyl)methanone], greater than 3000 nM.
